From patent publication US20050282824A1, “Substituted pyrimidines as inhibitors of bacterial type III protein secretion systems” (priority 2004, published 2005)

Tests used:
Type in all cases: cell-based
[1] = tested on: Type III protein secretion of ExoU by P. aeruginosa PA103; experiment: Tertiary assay: Type III-dependent secretion of ExoU by P. aeruginosa PA103; conditions: Pseudomonas aeruginosa, read-out: ExoU IC50(uM)
Description: Tertiary assay: inhibition of Type III protein secretion of effectors from a Pseudomonas aeruginosa system. Type III protein secretion is used by P. aeruginosa to secrete several essential virulence determinants. One effector of the type III protein secretion system of P. aeruginosa PA 103 is the virulence determinants ExoU.
The amount of Type III-dependent secretion of ExoU by P. aeruginosa PA103 can be determined in a cell-based assay by quantification of the 73.9 kDa ExoU protein secreted into the extracellular medium. Such quantitation can be achieved by growing strain PA 103 in a deferrated medium in the presence of nitrilotriacetic acid (an inducer of Type III protein secretion in P. aeruginosa) and either in the presence or absence of putative inhibitors. After a prolonged growth period, the cells are sedimented and the supernatants concentrated by ammonium sulfate precipitation. The proteins in the resuspended pellets are separated by electrophoresis on SDS-polyacrylamide gels. After staining gels with Colloidal Blue™, the 73.9 kDa ExoU band is quantitated by scanning through an imager. The effects of inhibitors on the intensity of the ExoU band may be measured relative to that of untreated controls.

[2] = tested on: SPI1 type III protein secretion of SopE'-'Bla by Salmonella enterica; experiment: Primary assay: Type III protein secretion of the chimeric SopE'-'Bla polypeptide by Salmonella enterica; conditions: read-out: SopE IC50(uM)
Description: Primary assay: Type III protein secretion of the chimeric SopE′-′Bla polypeptide by Salmonella enterica. This procedure is a cell-based assay that measures the type III-dependent secretion by Salmonella enterica of a plasmid-encoded chimeric polypeptide whose synthesis can be regulated, and which is endowed with an enzymatic activity that can be monitored […] by hydrolysis of a substrate that is unable to penetrate into the bacterial cytoplasm within the time constraints of the reaction. Thus, the colorimetric reaction is not influenced by SopE′-′Bla polypeptide in the bacterial cytoplasm. Instead, it effectively measures the amount of polypeptide that has been secreted from the S. enterica cytoplasm to the extracellular medium via type III system protein secretion.
The SopE′-′Bla recombinant polypeptide consists of two functionally distinct domains spliced together. The N-terminus domain is encoded by a polynucleotide region specifying the signal for type III secretion of the SopE polypeptide of S. enterica, an effector of the SPI1 type III protein secretion system. The C-terminus domain of SopE′-′Bla consists of a 263 amino acid peptide sequence that corresponds to the TEM-1 β-lactamase expressed by plasmid pBR322 but without its N-terminal signal sequence. The TEM-1 β-lactamase part of the SopE′-′Bla chimeric polypeptide is used as a reporter enzyme. It is capable of hydrolyzing nitrocefin resulting in a product whose accumulation can be monitored by colorimetric detection. The secretion of the SopE′-′Bla chimeric polypeptide from the cytoplasm to the extracellular medium is dependent on type III protein secretion.
For this procedure, cells grown under conditions known to favor a functional SPI1 secretion system are induced for expression of the SopE′-′Bla protein and grown either in the presence or in the absence of putative inhibitors for determined time. Nitrocefin is then added to the various cultures and its hydrolysis are used for quantitation. An inhibitor of Type III protein secretion is generally a compound that reduces the signal of the enzymatic reaction by decreasing the amount of SopE′-′Bla secreted into the extracellular medium.

[3] = tested on: SPI1 type III protein secretion of SipB by S. enterica; experiment: Secondary assay: Type III-dependent protein secretion of the SipB polypeptide by S. enterica; conditions: Salmonella enterica, read-out: SipB IC50(uM)
Protocol: Secondary assay: Type III-dependent protein secretion of the SipB polypeptide by S. enterica. The SipB protein of S. enterica is another effector of the SPI1 type III protein secretion system from S. enterica. In this cell-based procedure, the Type III-dependent secretion of SipB from the bacterial cytoplasm to the extracellular medium was measured through its reactivity with a cognate mouse monoclonal.
Salmonella enterica cells growing either in the presence or in the absence of inhibitors are induced for the production of SipB. Following an established period of growth the cells are sedimented and the amount of SipB present in the supernatant is quantified with a scanning imager following application of immunoblot techniques. Detection may employ an anti-SipB mouse monoclonal antibody (e.g., obtained from Jorge Galan, SUNY at Stony Brook, N.Y.) followed by treatment with commercially available sheep anti-mouse polyclonal antibody conjugated with horseradish peroxidase. Thereafter the membrane is treated with a peroxidase chemiluminescent substrate and exposed to film for an appropriate exposure time. Inhibition may be measured relative to untreated controls.

Q: For CC1CCN(c2cc(C(=O)N[C@@H](CSCc3ccccc3)C(=O)O)nc(-c3ccc(-c4ccccc4)cc3)n2)CC1 [Compound 40, (R)-3-Benzylsulfanyl-2-{[2-biphenyl-4-yl-6-(4-methylpiperidin-1-yl)pyrimidine-4-carbonyl]amino}propionic acid], which IC50 [1] is on record?
A: Its IC50 is 61.2 µM.

Q: And the IC50 [2]?
A: The IC50 was 5.1 µM.

Q: And the IC50 [3]?
A: Its IC50 is 23 µM.

Q: CN(C)c1ccc(-c2nc(C(=O)N[C@H](Cc3ccc(Cl)cc3)C(=O)O)cc(N3CCC(c4ccccc4)CC3)n2)cc1 [Compound 14, (R)-3-(4-Chlorophenyl)-2-{[2-(4-dimethylaminophenyl)-6-(4-phenylpiperidin-1-yl)pyrimidine-4-carbonyl]amino}propionic acid] was tested. Which IC50 [1] did it give?
A: Its IC50 is greater than 100 µM.

Q: And the IC50 [2]?
A: The IC50 was 1.8 µM.

Q: What about the IC50 [3] of the same molecule?
A: Its IC50 is 27.6 µM.

Q: Which results are given for CC1CCN(c2cc(C(=O)N[C@@H](COCc3ccccc3)C(=O)O)nc(-c3ccc(Oc4ccccc4)cc3)n2)CC1 [Compound 38, (S)-3-Benzyloxy-2-{[6-(4-methylpiperidin-1-yl)-2-(4-phenoxyphenyl)pyrimidine-4-carbonyl]amino}propionic acid]?
A: IC50 [1]: 82.8 µM; IC50 [2]: 1.3 µM; IC50 [3]: 7.1 µM

Q: What does the source list for O=C(N[C@@H](CSCc1ccccc1)C(=O)O)c1cc(N2CCC(c3ccc(F)cc3)CC2)nc(-c2ccc(C(F)(F)F)cc2)n1 [Compound 22, (R)-3-Benzylsulfanyl-2-{[6-[4-(4-fluorophenyl)piperidin-1-yl]-2-(4-trifluoromethylphenyl)pyrimidine-4-carbonyl]amino}propionic acid]?
A: IC50 [1]: 52.6 µM; IC50 [2]: 1.8 µM; IC50 [3]: > 100 µM

Q: Which results are given for O=C(NC(Cc1ccc(Cl)cc1)C(=O)O)c1cc(N2CCN(c3nccc(C(F)(F)F)n3)CC2)nc(-c2ccc([N+](=O)[O-])cc2)n1 (stereo not drawn) [Compound 53, 3-(4-Chlorophenyl)-2-({2-(4-nitrophenyl)-6-[4-(4-trifluoromethylpyrimidin-2-yl)-piperazin-1-yl]pyrimidine-4-carbonyl}amino)propionic acid]?
A: IC50 [1]: 40.4 µM; IC50 [2]: 1.2 µM; IC50 [3]: 84.6 µM

Q: For O=C(N[C@H](Cc1ccc(Cl)cc1)C(=O)O)c1cc(N2CCCc3ccccc32)nc(-c2cccc(C(F)(F)F)c2)n1 [Compound 13, (R)-3-(4-Chlorophenyl)-2-{[6-(3,4-dihydro-2H-quinolin-1-yl)-2-(3-trifluoromethyl-phenyl)pyrimidine-4-carbonyl]amino}propionic acid], which IC50 [1] is on record?
A: The IC50 was greater than 100 µM.

Q: And the IC50 [2]?
A: Its IC50 is 1.3 µM.

Q: What about the IC50 [3] of the same molecule?
A: The IC50 was 19.4 µM.

Q: For O=C(N[C@H](Cc1ccc(Cl)cc1)C(=O)O)c1cc(N2CCCCC2)nc(N2CCC(c3ccccc3)CC2)n1 [Compound 4, (R)-3-(4-Chlorophenyl)-2-{[2-(4-phenylpiperidin-1-yl)-6-piperidin-1-yl-pyrimidine-4-carbonyl]amino}propionic acid], which IC50 [1] is on record?
A: The IC50 was greater than 100 µM.

Q: What about the IC50 [2] of the same molecule?
A: The IC50 was 2 µM.

Q: And the IC50 [3]?
A: The IC50 was 27 µM.

Q: O=C(NC(Cc1ccc(Cl)cc1)C(=O)O)c1cc(-c2cccc(C(F)(F)F)c2)nc(N2CCN(c3ccccc3)CC2)n1 (stereo in doubt) [Compound 31, (R)-3-(4-Chlorophenyl)-2-{[2-(4-phenyl-piperazin-1-yl)-6-(3-trifluoromethylphenyl)pyrimidine-4-carbonyl]amino}propionic acid] was tested. Which IC50 [1] did it give?
A: Its IC50 is 88.7 µM.

Q: And the IC50 [2]?
A: The IC50 was 4.1 µM.

Q: What about the IC50 [3] of the same molecule?
A: Its IC50 is 13.3 µM.

Q: Which results are given for O=C(N[C@@H](CSCc1ccccc1)C(=O)O)c1cc(N2CCC(c3ccc(F)cc3)CC2)nc(-c2ccc(Cl)c(Cl)c2)n1 [Compound 17, (R)-3-Benzylsulfanyl-2-({2-(3,4-dichlorophenyl)-6-[4-(4-fluorophenyl)piperidin-1-yl]pyrimidine-4-carbonyl}amino)propionic acid]?
A: IC50 [1]: > 100 µM; IC50 [2]: 1.6 µM; IC50 [3]: 23 µM

Q: O=C(N[C@H](Cc1ccc(Cl)cc1)C(=O)O)c1cc(N2CCC(c3ccccc3)CC2)nc(-c2ccc(C(F)(F)F)cc2)n1 [Compound 15, (R)-3-(4-Chlorophenyl)-2-{[6-(4-phenylpiperidin-1-yl)-2-(4-trifluoromethylphenyl)-pyrimidine-4-carbonyl]amino}propionic acid] was tested. Which IC50 [1] did it give?
A: Its IC50 is 68.1 µM.

Q: And the IC50 [2]?
A: Its IC50 is 3.6 µM.

Q: And the IC50 [3]?
A: The IC50 was 8.5 µM.
